Reference: ChEMBL document CHEMBL3243981, “Antileukemic activity of ungeremine and related compounds. Preparation of analogues of ungeremine by a practical photochemical reaction” (J Med Chem, 1978)
The source made the active and inactive calls. The calls are words filed in the database; no cut-off is given here.

Tests used:
[1] = test system: Mus musculus; test: Toxicity in mouse allografted with mouse P388 cells assessed as change in body weight at 3.13 mg/kg administered daily as single dose; format: organism-based; parameters: dose 3.13 mg/kg; conditions: in vivo
[2] = test system: P388; test: Antileukemic activity against mouse P388 cells allografted in mouse assessed as host survival at 3.13 mg/kg administered daily as single dose; format: functional, organism-based; parameters: dose 3.13 mg/kg
[3] = test system: Mus musculus; test: Toxicity in mouse allografted with mouse P388 cells assessed as change in body weight at 12.5 mg/kg administered daily as single dose; format: organism-based; parameters: dose 12.5 mg/kg; conditions: in vivo
[4] = test system: Mus musculus; test: Toxicity in mouse allografted with mouse P388 cells assessed as change in body weight at 18.8 mg/kg administered daily as single dose; format: organism-based; parameters: dose 18.8 mg/kg; conditions: in vivo
[5] = test system: Mus musculus; test: Toxicity in mouse allografted with mouse P388 cells assessed as change in body weight at 25 mg/kg administered daily as single dose; format: organism-based; parameters: dose 25 mg/kg; conditions: in vivo
[6] = test system: P388; test: Antileukemic activity against mouse P388 cells allografted in mouse assessed as host survival at 12.5 mg/kg administered daily as single dose; format: functional, organism-based; parameters: dose 12.5 mg/kg
[7] = test system: Mus musculus; test: Toxicity in mouse allografted with mouse P388 cells assessed as change in body weight at 6.25 mg/kg administered daily as single dose; format: organism-based; parameters: dose 6.25 mg/kg; conditions: in vivo
[8] = test system: P388; test: Antileukemic activity against mouse P388 cells allografted in mouse assessed as host survival at 50 mg/kg administered daily as single dose; format: functional, organism-based; parameters: dose 50 mg/kg
[9] = test system: P388; test: Antileukemic activity against mouse P388 cells allografted in mouse assessed as host survival at 18.8 mg/kg administered daily as single dose; format: functional, organism-based; parameters: dose 18.8 mg/kg
[10] = test system: P388; test: Antileukemic activity against mouse P388 cells allografted in mouse at 25 mg/kg administered daily as single dose relative to control; format: functional
[11] = test system: P388; test: Antileukemic activity against mouse P388 cells allografted in mouse at 6.25 mg/kg administered daily as single dose relative to control; format: functional
[12] = test system: P388; test: Antileukemic activity against mouse P388 cells allografted in mouse at 12.5 mg/kg administered daily as single dose relative to control; format: functional
[13] = test system: P388; test: Antileukemic activity against mouse P388 cells allografted in mouse assessed as host survival at 6.25 mg/kg administered daily as single dose; format: functional, organism-based; parameters: dose 6.25 mg/kg
[14] = test system: P388; test: Antileukemic activity against mouse P388 cells allografted in mouse at 18.8 mg/kg administered daily as single dose relative to control; format: functional
[15] = test system: P388; test: Antileukemic activity against mouse P388 cells allografted in mouse at 3.13 mg/kg administered daily as single dose relative to control; format: functional
[16] = test system: Mus musculus; test: Toxicity in mouse allografted with mouse P388 cells assessed as change in body weight at 100 mg/kg administered daily as single dose; format: organism-based; parameters: dose 100 mg/kg; conditions: in vivo
[17] = test system: P388; test: Antileukemic activity against mouse P388 cells allografted in mouse at 100 mg/kg administered daily as single dose relative to control; format: functional
[18] = test system: P388; test: Antileukemic activity against mouse P388 cells allografted in mouse assessed as host survival at 25 mg/kg administered daily as single dose; format: functional, organism-based; parameters: dose 25 mg/kg
[19] = test system: P388; test: Antileukemic activity against mouse P388 cells allografted in mouse at 50 mg/kg administered daily as single dose relative to control; format: functional
[20] = test system: Mus musculus; test: Toxicity in mouse allografted with mouse P388 cells assessed as change in body weight at 50 mg/kg administered daily as single dose; format: organism-based; parameters: dose 50 mg/kg; conditions: in vivo

**Q.** `[Cl-].c1cc2c3c(c1)c1cc4c(cc1c[n+]3CCC2)OCO4` was tested. Which Activity [1] did it give?
**A.** Its Activity is -0.2 g.

**Q.** What about the Survival [2] of the same compound?
**A.** The Survival was “Active”.

**Q.** And the Activity [3]?
**A.** The Activity was -1.9 g.

**Q.** What about the Activity [4] of the same compound?
**A.** Its Activity is -2.4 g.

**Q.** And the Activity [5]?
**A.** Its Activity is -3.3 g.

**Q.** And the Survival [6]?
**A.** The Survival was “Active”.

**Q.** What about the Activity [7] of the same compound?
**A.** Its Activity is -1.7 g.

**Q.** What about the Survival [8] of the same compound?
**A.** Its Survival is “inactive”.

**Q.** And the Survival [9]?
**A.** The Survival was “Active”.

**Q.** And the T/C [10]?
**A.** Its T/C is 120%.

**Q.** And the T/C [11]?
**A.** Its T/C is 126%.

**Q.** And the T/C [12]?
**A.** Its T/C is 129%.

**Q.** And the Survival [13]?
**A.** Its Survival is “Active”.

**Q.** What about the T/C [14] of the same compound?
**A.** Its T/C is 132%.

**Q.** What about the T/C [15] of the same compound?
**A.** The T/C was 110%.

**Q.** What does the source list for `COc1cc2c[n+]3c4c(cccc4c2cc1OC)CC3.[Cl-]`?
**A.** Activity [5]: -0.9 g; Survival [8]: Active; Activity [16]: -5.1 g; T/C [17]: 114%; Survival [18]: Active; T/C [10]: 108%; T/C [19]: 118%; Activity [20]: -1.7 g

**Q.** For `COc1cc2c[n+]3c4c(cccc4c2cc1OC)CCC3.[Cl-]`, which Activity [3] is on record?
**A.** Its Activity is -1.4 g.

**Q.** And the Activity [5]?
**A.** The Activity was -0.1 g.

**Q.** And the Survival [6]?
**A.** The Survival was “Active”.

**Q.** What about the Survival [8] of the same compound?
**A.** Its Survival is “Active”.

**Q.** And the Survival [18]?
**A.** The Survival was “Active”.

**Q.** And the T/C [10]?
**A.** Its T/C is 108%.

**Q.** What about the T/C [19] of the same compound?
**A.** Its T/C is 110%.

**Q.** And the T/C [12]?
**A.** The T/C was 109%.

**Q.** And the Activity [20]?
**A.** Its Activity is -3.2 g.

**Q.** How did the Activity [1] turn out when `[O-]c1cc2c3c(c1)c1cc4c(cc1c[n+]3CC2)OCO4` [UNGEREMINE] was run?
**A.** Its Activity is -0.7 g.

**Q.** What about the Survival [2] of the same compound?
**A.** The Survival was “Active”.

**Q.** What about the Activity [3] of the same compound?
**A.** Its Activity is -1.9 g.

**Q.** And the Activity [5]?
**A.** The Activity was -2.1 g.

**Q.** What about the Survival [6] of the same compound?
**A.** Its Survival is “Active”.

**Q.** What about the Activity [7] of the same compound?
**A.** Its Activity is -0.7 g.

**Q.** And the Survival [8]?
**A.** The Survival was “Active”.

**Q.** What about the Survival [18] of the same compound?
**A.** The Survival was “Active”.

**Q.** What about the T/C [10] of the same compound?
**A.** The T/C was 148%.

**Q.** What about the T/C [19] of the same compound?
**A.** The T/C was 152%.

**Q.** What about the T/C [11] of the same compound?
**A.** The T/C was 136%.

**Q.** What about the T/C [12] of the same compound?
**A.** Its T/C is 148%.

**Q.** What about the Activity [20] of the same compound?
**A.** The Activity was -3.9 g.

**Q.** What about the Survival [13] of the same compound?
**A.** The Survival was “Active”.

**Q.** And the T/C [15]?
**A.** The T/C was 133%.

**Q.** For `[Cl-].c1cc2c3c(c1)c1cc4c(cc1c[n+]3CC2)OCO4` [ANHYDROLYCORINIUM CHLORIDE], which Activity [3] is on record?
**A.** Its Activity is -2.1 g.

**Q.** And the Activity [5]?
**A.** Its Activity is -2.9 g.

**Q.** What about the Survival [6] of the same compound?
**A.** The Survival was “Active”.

**Q.** And the Activity [7]?
**A.** Its Activity is -1.5 g.

**Q.** What about the Survival [18] of the same compound?
**A.** The Survival was “Active”.

**Q.** What about the T/C [10] of the same compound?
**A.** The T/C was 153%.

**Q.** What about the T/C [11] of the same compound?
**A.** The T/C was 127%.

**Q.** What about the T/C [12] of the same compound?
**A.** The T/C was 142%.

**Q.** What about the Survival [13] of the same compound?
**A.** Its Survival is “Active”.

**Q.** Which Activity [1] does the source give for `C[n+]1cc2cc3c(cc2c2ccccc21)OCO3.[Cl-]` here?
**A.** Its Activity is -0.3 g.

**Q.** What about the Survival [2] of the same compound?
**A.** Its Survival is “Active”.

**Q.** And the Activity [3]?
**A.** Its Activity is -1 g.

**Q.** And the Activity [4]?
**A.** Its Activity is -1.3 g.

**Q.** And the Activity [5]?
**A.** The Activity was -2.5 g.

**Q.** What about the Survival [6] of the same compound?
**A.** Its Survival is “Active”.

**Q.** What about the Activity [7] of the same compound?
**A.** The Activity was -0.9 g.

**Q.** And the Survival [9]?
**A.** Its Survival is “Active”.

**Q.** And the Survival [18]?
**A.** Its Survival is “Active”.

**Q.** And the T/C [10]?
**A.** The T/C was 151%.

**Q.** And the T/C [11]?
**A.** The T/C was 129%.

**Q.** What about the T/C [12] of the same compound?
**A.** The T/C was 135%.

**Q.** What about the Survival [13] of the same compound?
**A.** Its Survival is “Active”.

**Q.** What about the T/C [14] of the same compound?
**A.** Its T/C is 144%.

**Q.** And the T/C [15]?
**A.** The T/C was 126%.

**Q.** Which results are given for `COc1cc2c[n+](C)c3ccccc3c2cc1OC.[Cl-]`?
**A.** Activity [3]: -1.1 g; Activity [5]: -1 g; Survival [6]: Active; Survival [8]: Active; Activity [16]: -3.8 g; T/C [17]: 123%; Survival [18]: Active; T/C [10]: 121%; T/C [19]: 130%; T/C [12]: 113%; Activity [20]: -1.6 g

**Q.** With `Oc1cc2c3c(c1)c1cc4c(cc1c[n+]3CC2)OCO4.[Cl-]` as the compound, how does the Activity [1] read?
**A.** Its Activity is -0.7 g.

**Q.** What about the Survival [2] of the same compound?
**A.** The Survival was “Active”.

**Q.** And the Activity [3]?
**A.** The Activity was -2.4 g.

**Q.** What about the Activity [5] of the same compound?
**A.** The Activity was -3.9 g.

**Q.** What about the Survival [6] of the same compound?
**A.** Its Survival is “Active”.

**Q.** What about the Activity [7] of the same compound?
**A.** The Activity was -1.7 g.

**Q.** And the T/C [10]?
**A.** The T/C was 164%.

**Q.** And the T/C [11]?
**A.** The T/C was 151%.

**Q.** And the T/C [12]?
**A.** The T/C was 155%.

**Q.** And the Survival [13]?
**A.** Its Survival is “Active”.

**Q.** And the T/C [15]?
**A.** The T/C was 133%.

**Q.** Which results are given for `COS(=O)(=O)[O-].C[n+]1cc2ccccc2c2ccccc21`?
**A.** Activity [1]: -0.8 g; Survival [2]: Active; Activity [3]: -2.2 g; Activity [5]: -3.2 g; Survival [6]: Active; Activity [7]: -1 g; Survival [8]: Active; Survival [18]: Active; T/C [10]: 125%; T/C [19]: 113%; T/C [11]: 117%; T/C [12]: 120%; Activity [20]: -6.4 g; Survival [13]: Active; T/C [15]: 108%
